PMC7608335 (Acta Pharmacologica Sinica, 2020)

Tests used:
[1] = target: T1, CaV1.2 channel (α1C subunit) (Rattus norvegicus, UniProt P22002); experiment: whole-cell patch clamp of ICa1.[…]; format: cell-based; conditions: read-out: % inhibition at 100 μM
[2] = target: T1, CaV1.2 channel (α1C subunit); experiment: whole-cell patch clamp; format: cell-based; conditions: read-out: % of control at 100 nM

| SMILES | inhibition at 100 µM [1] [%] | remaining activity at 0.1 µM [2] [%] |
| --- | --- | --- |
| O=C(c1ccc(F)cc1)C1CCN(CCn2c(=O)[nH]c3ccccc3c2=O)CC1 [ketanserin, 3-[2-[4-(4-fluorobenzoyl)piperidin-1-yl]ethyl]-1H-quinazoline-2,4-dione] | ~50 | – |
| COC(=O)C1=C(C)NC(C)=C([N+](=O)[O-])[C@H]1c1ccccc1C(F)(F)F [Bay K 8644, (S)-(-)-methyl-1,4-dihydro-2,6-dimethyl-3-nitro-4-(2-trifluoromethylphenyl)pyridine-5-carboxylate] | – | 524 |
